# Measured values from US7553969B1, “Substituted phenethylamine derivatives” (Chugai Seiyaku Kabushiki Kaisha, priority 1999, dated 2009).
# Where a SMILES comes first, the peptide text is derived from it. [ ]: non-standard residue; d: D form. The star is where a group is joined. NMeTyr(3-tBu) = CN[C@@H](Cc1ccc(O)c(C(C)(C)C)c1)C(=O)O; Tyr(3-tBu) = CC(C)(C)c1cc(C[C@H](N)C(=O)O)ccc1O; Phe(3,4-F2) = N[C@@H](Cc1ccc(F)c(F)c1)C(=O)O; NMePhe(4-F) = CN[C@@H](Cc1ccc(F)cc1)C(=O)O; Tyr(3-F) = N[C@@H](Cc1ccc(O)c(F)c1)C(=O)O; Phe(3-F) = N[C@@H](Cc1cccc(F)c1)C(=O)O; Phe(4-F) = N[C@@H](Cc1ccc(F)cc1)C(=O)O; NMeV = CN[C@H](C(=O)O)C(C)C; NHtBu = CC(C)(C)N*; NHiPr = CC(C)N*
# Assays:
# [1] = tested on: specimen of longitudinal muscle in the duodenum extracted from a rabbit (motilin-induced contraction); assay: Action on the motilin-induced contraction of a specimen of longitudinal muscle in the duodenum extracted from a rabbit; details: organ bath, Krebs solution 28° C.; for Kb: Oryctolagus cuniculus, read-out: Contraction suppressing test, pA2 (converted)
# Procedure: Action on the Contraction of a Specimen of Longitudinal Muscle in the Duodenum Extracted from a Rabbit
# The action on the motilin-induced contraction of a specimen of longitudinal muscle in the duodenum extracted from a rabbit was investigated by the following method. A duodenum specimen (5×15 mm) extracted from a slaughtered rabbit was suspended in an organ bath (10 ml) such that the longitudinal muscle would run vertically; the bath was filled with a Krebs solution kept at 28° C. A mixed gas (95% O2 and 5% CO2) was continuously bubbled into the Krebs solution and the contraction of the duodenum specimen was recorded isotonically (with a 1-g load) via an isotonic transducer (ME-3407, ME Commercial, Tokyo, Japan). The degree of contraction was expressed in relative values, with the contraction by acetylcholine at a dose of 10^−4 M being taken as 100%. The activity of the compound was calculated as pA2 value indicating its effect on the dose-dependent muscle contraction by the motilin put into the organ bath.
# motilin receptor = target: T1, motilin receptor (Oryctolagus cuniculus, UniProt G1T803); assay: Motilin receptor binding test (125I motilin, rabbit duodenum protein sample); details: 125I motilin 25 pM, concentration reducing specific binding by 50%
# T1 construct: homogenized in 50 mM Tris buffer to prepare a protein sample; from tissue; host or cells: rabbit duodenum homogenate (mucous membrane separated)
# T1 sequence (G1T803 1-400): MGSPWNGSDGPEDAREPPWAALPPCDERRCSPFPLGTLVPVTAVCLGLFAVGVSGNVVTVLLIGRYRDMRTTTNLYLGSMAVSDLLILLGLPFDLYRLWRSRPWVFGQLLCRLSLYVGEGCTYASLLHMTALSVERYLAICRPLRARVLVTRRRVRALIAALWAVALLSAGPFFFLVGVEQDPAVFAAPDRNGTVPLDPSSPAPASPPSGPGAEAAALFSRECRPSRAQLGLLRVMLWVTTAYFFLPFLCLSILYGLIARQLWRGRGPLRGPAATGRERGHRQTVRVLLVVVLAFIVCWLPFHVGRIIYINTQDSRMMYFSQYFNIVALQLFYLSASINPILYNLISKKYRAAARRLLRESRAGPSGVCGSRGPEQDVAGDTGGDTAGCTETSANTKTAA
# Procedure: Motilin receptor binding test
# A motilin receptor binding test was conducted in the following manner [Vantrappen et al., Regul. Peptides, 15, 143 (1986)]. The duodenum was extracted from a slaughtered rabbit, had the mucous membrane separated and homogenized in 50 mM Tris buffer to prepare a protein sample. The protein sample was incubated together with ^125I motilin 25 pM and thereafter the radioactivity bound to the protein was measured. Specific binding was defined as the difference between the radioactivity in the case of adding a great excess amount of motilin (10^−7 M) and that in the case of no adding. The activity of the compound was expressed by IC50 (in nM), as the concentration sufficient to reduce the specific binding by 50%.
Compound,IC50 (motilin receptor),Kb [1],"Contraction suppressing test, pA2 [1]"
"CNC(=O)[C@H](Cc1ccc(O)c(C(C)(C)C)c1)NC(=O)[C@H](C(C)C)N(C)C(=O)[C@@H](N)Cc1ccc(F)cc1 [Example 31, Phe(4-F)-N-Me-Val-Tyr(3-tBu)-NHMe] (H-[Phe(4-F)]-[NMeV]-[Tyr(3-tBu)]-NHMe)",0.79 nM,0.316 nM,
"CC(C)[C@@H](C(=O)N[C@@H](Cc1ccc(O)c(C(C)(C)C)c1)C(=O)NC(C)(C)C)N(C)C(=O)[C@@H](N)Cc1ccc(F)cc1 [Example 63, Phe(4-F)-N-Me-Val-Tyr(3-tBu)-NHtBu] (H-[Phe(4-F)]-[NMeV]-[Tyr(3-tBu)]-NHtBu)",0.62 nM,3.98 nM,
"CCNC(=O)[C@H](Cc1ccc(O)c(C(C)(C)C)c1)N(CC)C(=O)[C@H](C(C)C)N(C)C(=O)[C@H](Cc1ccc(F)cc1)NC [Example 108, N-Me-Phe(4-F)-N-Me-Val-N-Et-Tyr(3-tBu)-NHEt]",0.43 nM,1 nM,
"CCNC(=O)[C@H](Cc1ccc(O)c(C(C)(C)C)c1)NC(=O)[C@H](C(C)C)N(C)C(=O)[C@@H](N)Cc1ccc(F)cc1 [Example 101, Phe(4-F)-N-Me-Val-Tyr(3-tBu)-NHEt] (H-[Phe(4-F)]-[NMeV]-[Tyr(3-tBu)]-NHEt)",0.24 nM,1.26 nM,
"CC(C)[C@@H](C(=O)N(C)[C@@H](Cc1ccc(O)c(C(C)(C)C)c1)C(N)=O)N(C)C(=O)[C@@H](N)Cc1ccc(F)c(F)c1 [Example 3, Phe(3,4-F2)-N-Me-Val-N-Me-Tyr(3-tBu)-NH2] (H-[Phe(3,4-F2)]-[NMeV]-[NMeTyr(3-tBu)]-NH2)",1.5 nM,2 nM,
"CCNC(=O)[C@H](Cc1ccc(O)c(C(C)(C)C)c1)N(C)C(=O)[C@H](C(C)C)N(C)C(=O)[C@H](Cc1ccc(F)cc1)NC [Example 105, N-Me-Phe(4-F)-N-Me-Val-N-Me-Tyr(3-tBu)-NHEt] (H-[NMePhe(4-F)]-[NMeV]-[NMeTyr(3-tBu)]-NHEt)",0.31 nM,0.158 nM,
"CCN(C(=O)[C@H](C(C)C)N(C)C(=O)[C@H](Cc1ccc(F)cc1)NC)[C@@H](Cc1ccc(O)c(C(C)(C)C)c1)C(=O)NC [Example 43, N-Me-Phe(4-F)-N-Me-Val-N-Et-Tyr(3-tBu)-NHMe]",1.9 nM,3.16 nM,
"CC(C)[C@@H](C(=O)N(C)[C@@H](Cc1ccc(O)c(C(C)(C)C)c1)C(N)=O)N(C)C(=O)[C@@H](N)Cc1ccc(O)c(F)c1 [Example 27, Tyr(3-F)-N-Me-Val-N-Me-Tyr(3-tBu)-NH2] (H-[Tyr(3-F)]-[NMeV]-[NMeTyr(3-tBu)]-NH2)",1.2 nM,2.51 nM,
"CC(C)[C@@H](C(=O)N(C)[C@@H](Cc1ccc(O)c(C(C)(C)C)c1)C(N)=O)N(C)C(=O)[C@@H](N)Cc1cccc(F)c1 [Example 4, Phe(3-F)-N-Me-Val-N-Me-Tyr(3-tBu)-NH2] (H-[Phe(3-F)]-[NMeV]-[NMeTyr(3-tBu)]-NH2)",1.6 nM,5.01 nM,
"CN[C@@H](Cc1ccc(F)cc1)C(=O)N(C)[C@H](C(=O)N[C@@H](Cc1ccc(O)c(C(C)(C)C)c1)C(=O)NCO)C(C)C [Example 123, N-Me-Phe(4-F)-N-Me-Val-Tyr(3-tBu)-NHCH2OH]",0.7 nM,0.794 nM,
"CC(C)[C@@H](C(=O)N[C@H](CNC(N)=O)Cc1ccc(O)c(C(C)(C)C)c1)N(C)C(=O)[C@@H](N)Cc1ccc(F)cc1 [Example 9, N-(2-(2-((2-amino-3-(4-fluorophenyl)propionyl)-N-methylamino)-3-methylbutyrylamino)-3-(3-tBu-4-hydroxyphenyl)propyl)urea]",1 nM,1 nM,
"CCN[C@@H](Cc1ccc(F)cc1)C(=O)N(C)[C@H](C(=O)N(CC)[C@@H](Cc1ccc(O)c(C(C)(C)C)c1)C(=O)NC)C(C)C [Example 44, N-Et-Phe(4-F)-N-Me-Val-N-Et-Tyr(3-tBu)-NHMe]",3.6 nM,3.16 nM,
"CN[C@@H](Cc1ccc(F)cc1)C(=O)N(C)[C@H](C(=O)N[C@@H](Cc1ccc(O)c(C(C)(C)C)c1)C(N)=O)C(C)C [Example 29, N-Me-Phe(4-F)-N-Me-Val-Tyr(3-tBu)-NH2] (H-[NMePhe(4-F)]-[NMeV]-[Tyr(3-tBu)]-NH2)",0.45 nM,2 nM,
"CCOC(=O)CN1CCN(C(=O)[C@H](Cc2ccc(O)c(C(C)(C)C)c2)N(C)C(=O)[C@H](C(C)C)N(C)C(=O)[C@@H](N)Cc2ccc(F)cc2)CC1 [Example 135, ethyl 2-[4-((2S)-2-{(2S)-2-[(2S)-2-amino-3-(4-fluorophenyl)-N-methylpropanolyamino]-3,N-dimethylbutanoylamino}-3-[3-(tert-butyl)-4-hydroxyphenyl]propanoyl)piperazinyl]acetate]",0.7 nM,3.16 nM,
"CCN[C@@H](Cc1ccc(F)cc1)C(=O)N(C)[C@H](C(=O)N(C)[C@@H](Cc1ccc(O)c(C(C)(C)C)c1)C(=O)NCO)C(C)C [Example 126, N-Et-Phe(4-F)-N-Me-Val-N-Me-Tyr(3-tBu)-NHCH2OH]",1.9 nM,0.631 nM,
"CCN[C@@H](Cc1ccc(F)cc1)C(=O)N(C)[C@H](C(=O)N[C@@H](Cc1ccc(O)c(C(C)(C)C)c1)C(N)=O)C(C)C [Example 30, N-Et-Phe(4-F)-N-Me-Val-Tyr(3-tBu)-NH2]",0.81 nM,0.794 nM,
"CC(C)[C@@H](C(=O)N[C@@H](Cc1ccc(O)c(C(C)(C)C)c1)c1nnc[nH]1)N(C)C(=O)[C@@H](N)Cc1ccc(F)cc1 [Example 24, 2-((2-amino-3-(4-fluorophenyl)propionyl)-N-methylamino)-3-methylbutyric acid 2-(3-t-butyl-4-hydroxyphenyl)-1-(1,3,4-triazol-2-yl)ethylamide]",0.94 nM,0.794 nM,

# Continued by falling IC50 (motilin receptor), values first:
IC50 (motilin receptor),Compound,Kb [1],"Contraction suppressing test, pA2 [1]"
3.1 nM,"CCN[C@@H](Cc1ccc(F)cc1)C(=O)N(C)[C@H](C(=O)N(CC)[C@@H](Cc1ccc(O)c(C(C)(C)C)c1)C(N)=O)C(C)C [Example 41, N-Et-Phe(4-F)-N-Me-Val-N-Et-Tyr(3-tBu)-NH2]",3.98 nM,
2 nM,"CCN(C(=O)[C@H](C(C)C)N(C)C(=O)[C@@H](N)Cc1ccc(F)cc1)[C@@H](Cc1ccc(O)c(C(C)(C)C)c1)C(N)=O [Example 39, Phe(4-F)-N-Me-Val-N-Et-Tyr(3-tBu)-NH2]",2 nM,
1.7 nM,"CCN[C@@H](Cc1ccc(F)cc1)C(=O)N(C)[C@H](C(=O)N(C)[C@@H](Cc1ccc(O)c(C(C)(C)C)c1)C(N)=O)C(C)C [Example 35, N-Et-Phe(4-F)-N-Me-Val-N-Me-Tyr(3-tBu)-NH2]",1.58 nM,
1.5 nM,"CC(C)[C@@H](C(=O)N(C)[C@@H](Cc1ccc(O)c(C(C)(C)C)c1)C(=O)N1CCN(S(C)(=O)=O)CC1)N(C)C(=O)[C@@H](N)Cc1ccc(F)cc1 [Example 134, (2S)-2-[(2S)-2-amino-3-(4-fluorophenyl)-N-methylpropanolyamino]-N-((1S)-1-{[3-(tert-butyl)-4-hydroxyphenyl]methyl}-2-[4-(methylsulfonyl)piperazinyl]-2-oxoethyl)-3-methyl-N-methylbutanamide]",5.01 nM,
1 nM,"CC(C)C(C(=O)N(C)C(Cc1ccc(O)c(C(C)(C)C)c1)C(=O)NCS(C)(=O)=O)N(C)C(=O)C(N)Cc1ccc(F)cc1 (stereo not drawn) [Example 64, Phe(4-F)-N-Me-Val-N-Me-Tyr(3-tBu)-NHCH2SO2CH3]",,9.0
1 nM,"CN[C@@H](Cc1ccc(F)cc1)C(=O)N(C)[C@H](C(=O)N(C)[C@@H](Cc1ccc(O)c(C(C)(C)C)c1)C(=O)NCO)C(C)C [Example 125, N-Me-Phe(4-F)-N-Me-Val-N-Me-Tyr(3-tBu)-NHCH2OH]",1 nM,
0.89 nM,"CC(C)[C@@H](C(=O)N(C)[C@@H](Cc1ccc(O)c(C(C)(C)C)c1)C(N)=O)N(C)C(=O)[C@@H](N)Cc1ccc(F)cc1 [Example 1, Phe(4-F)-N-Me-Val-N-Me-Tyr(3-tBu)-NH2] (H-[Phe(4-F)]-[NMeV]-[NMeTyr(3-tBu)]-NH2)",1.58 nM,
0.86 nM,"CC(C)[C@@H](C(=O)N(C)[C@@H](Cc1ccc(O)c(C(C)(C)C)c1)C(=O)NCO)N(C)C(=O)[C@@H](N)Cc1ccc(F)cc1 [Example 132, Phe(4-F)-N-Me-Val-N-Me-Tyr(3-tBu)-NHCH2OH]",1.26 nM,
0.27 nM,"CC(C)NC(=O)[C@H](Cc1ccc(O)c(C(C)(C)C)c1)NC(=O)[C@H](C(C)C)N(C)C(=O)[C@@H](N)Cc1ccc(F)cc1 [Example 120, Phe(4-F)-N-Me-Val-Tyr(3-tBu)-NH-i-Pr] (H-[Phe(4-F)]-[NMeV]-[Tyr(3-tBu)]-NHiPr)",1 nM,
0.27 nM,"CC(C)[C@@H](C(=O)N[C@@H](Cc1ccc(O)c(C(C)(C)C)c1)c1nnco1)N(C)C(=O)[C@@H](N)Cc1ccc(F)cc1 [Example 21, 2-((2-amino-3-(4-fluorophenyl)propionyl)-N-methylamino)-3-methylbutyric acid 2-(3-t-butyl-4-hydroxyphenyl)-1-(1,3,4-oxadiazol-2-yl)ethylamide]",0.158 nM,
